We go through 61 molecules from patent publication US11905244B2, “Chemical modulators of store-operated calcium channels and their therapeutic applications” (The Texas A&M University System, priority 2017, dated 2024).

This experiment concerns the target CRAC channel (Homo sapiens (Human), UniProt Q96D31). Description: GFP-NFAT translocation-based high-content screening (TG-stimulated HeLa cells stably expressing GFP-NFAT). The settings on record: for pIC50: unit inferred. The class given is cell-based. An excerpt:
It is known that thapsigargin (TG) can induce the CRAC channel to open resulting in the calcium influx. The elevation of calcium in cytoplasm can activate the Ca^2+-calcineurin-NFAT pathway followed by NFAT translocation from the cytoplasm to the nucleus to regulate gene transcription. Therefore, the inventors built a GFP-NFAT translocation-based high-content screening method to evaluate the activity of compounds on CRAC channel. Briefly, a HeLa cell line stably expressing GFP-NFAT was established and used, and the images after chemical stimulation in the presence of TG were acquired using an IN Cell Analyzer 6000 confocal laser imaging system, and then the GFP fluorescent intensity ratio between cytoplasm and nucleus was analyzed to reflect the inhibitory activity of compound on CRAC channel.
Briefly, GFP-NFAT stable cells were cultured in Dulbecco's modified eagle's medium (DMEM) supplemented with 10% FBS in 5% carbon dioxide at 37° C. When it reached 90% confluency, a cell suspension with a concentration of […] was prepared, and an amount of 2000 cells per well (25 μL/well) was seeded in 384 well plate, putting it at the room temperature for 1 h to make sure the cells distribute evenly, then the cells were incubated overnight. First, primary screening of the selected compounds was conducted. A series of compound solutions with a concentration of 200 μM in MEDM medium were prepared in a 96 well plate and then added to a 384 well plate using a Beckman Coulter automatic drug adding system, in 4 duplicates, and incubated for 30 min at 37° C. SKF was selected as the positive control. Then, 1 μM TG and 1 mM Ca^2+ were added to 384-well plate using Beckman Coulter automatic drug adding system and incubated for 20 min. Subsequently, 384 well plate was gently washed with PBS twice, and the cells were fixed with 4% PFA (25 μl per well) for 10˜15 mins at room temperature, then washed with PBS gently, added 0.5% Triton X-100 (25 μL per well), and incubated for 5 mins aFt room temperature, stained with DAPI (1 μg/mL) for 5˜10 mins at room temperature, washed with PBS and added 30 μL PBS per well to image on confocal laser imaging system (objective lens: 10×, FITC and UV). Using Pipeline Plot software (NAFT translocation protocol), the intensity of green fluorescence was analyzed in nucleus and cytosol, calculate the ratio of nucleus:cytosol, normalize TG stimulate NFAT translocation as 1 and no TG adding as 0. Finally, the data was analyzed using GraphPad Prism 5 software.

Setting [1] is: Table 2, read-out: IC50 of the compounds (inhibitory activity on CRAC channel).
The mark [2] stands for this setting: Table 1, hits from virtual screening, read-out: IC50 Value.

pIC50: −log10 of the molar value. Where two headings read alike, the source gives them in different places.

Chain of CRAC channel (Q96D31 whole entry): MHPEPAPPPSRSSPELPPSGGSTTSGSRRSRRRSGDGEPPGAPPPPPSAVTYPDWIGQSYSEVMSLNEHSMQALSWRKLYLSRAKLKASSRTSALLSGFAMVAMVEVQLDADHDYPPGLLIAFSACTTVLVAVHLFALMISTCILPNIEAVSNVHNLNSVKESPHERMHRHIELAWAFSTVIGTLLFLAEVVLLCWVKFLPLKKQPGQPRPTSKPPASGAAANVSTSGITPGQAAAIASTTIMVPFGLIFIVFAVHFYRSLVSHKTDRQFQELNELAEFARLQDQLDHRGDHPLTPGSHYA

By pIC50 is commonly meant the negative decadic logarithm of the IC50, by convention in mol/L. For the molecule `CN/C(=N/c1cc(Cl)ccc1Cl)SC1CC(=O)N(c2ccc(C(=O)O)cc2)C1=O` (centres unmarked) [Compound 56], the pIC50 under setting [1] was less than 3.70. Consider `O=C(O)CCC(=O)Nc1ccc(OCCc2ccccc2)cc1` [Compound 44], for which the pIC50 under setting [2] was less than 3.70. Regarding `Cc1cc2nc(S(=O)(=O)O)n(C)c2cc1C` [Compound 31], the pIC50 under setting [2] was less than 3.70.

`CN/C(=N/c1ccc(F)cc1)SC1CC(=O)N(c2ccc(C(=O)O)cc2)C1=O` (centres unmarked) [Compound 54]: the pIC50 under setting [1] is less than 3.70. With `Cc1ccc(S(=O)(=O)Nc2ccc(O)c(C(=O)O)c2)c(C)c1` [Compound 46], the pIC50 under setting [2] was less than 3.70.

For the molecule `C=CC[C@H]1N(c2ccccc2Cl)C[C@H]2[C@H](C(=O)O)[C@@H]3C=C[C@@]21O3` [Compound 25], under setting [2], the pIC50 was less than 3.70. As for `CCN/C(=N/c1ccc(C(F)(F)F)cc1)SC1CC(=O)N(c2ccc(C(=O)O)cc2)C1=O` (centres unmarked) [Compound 55], under setting [1], the negative logarithm of the IC50 (pIC50) was less than 3.70. Take `CN1C(=O)C(Cc2ccc(O)c(Cl)c2)S/C1=N\c1cccc(C(=O)O)c1` (centres unmarked) [Compound 21]: the pIC50 (Table 1, compound marked as agonist, read-out: IC50 Value (agonist)) was 4.22. On to `O=C(O)c1ccc2c(c1)[C@@H](Cl)Cc1ccccc1S2` [Compound 35], for which, under setting [2], the pIC50 was less than 3.70. Turning to `CCN/C(=N/c1ccccc1)SC1CC(=O)N(c2ccc(C(=O)O)cc2)C1=O` (centres unmarked) [Compound 61], the pIC50 under setting [1] is less than 3.70. On to `CCN/C(=N\c1ccccc1)SC1CC(=O)N(c2ccc(C(=O)NC)cc2)C1=O` (centres unmarked) [Compound 90], for which the pIC50 under setting [1] was less than 3.70.

With `CNC(=O)c1ccc(N2C(=O)CC(S/C(=N/c3ccccc3)NC3CC3)C2=O)cc1` (centres unmarked) [Compound 94], the pIC50 under setting [1] is less than 3.70. The same measure, in the same setting: the result for `CCCCN/C(=N\c1ccccc1)SC1CC(=O)N(c2ccc(C(=O)OC)cc2)C1=O` (centres unmarked) [Compound 78] reads less than 3.70. On to `CCN/C(=N/c1cccc(F)c1)SC1CC(=O)N(c2ccc(C(=O)O)cc2)C1=O` (centres unmarked) [Compound 73], for which the negative-log IC50 (pIC50) under setting [1] is less than 3.70. In the case of `CCN/C(=N\c1ccccc1)SC1CC(=O)N(c2ccc(C(=O)OCC)cc2)C1=O` (centres unmarked) [Compound 83], the pIC50 under setting [1] is less than 3.70. `O=C(O)c1ccc(NC(=O)[C@H]2CC(=O)N(c3ccc(Cl)cc3)C2)cc1` [Compound 47]: the pIC50 under setting [2] was less than 3.70. Regarding `CN/C(=N/c1ccc(I)cc1)SC1CC(=O)N(c2ccc(C(=O)O)cc2)C1=O` (centres unmarked) [Compound 59], the pIC50 under setting [1] is less than 3.70.

On to `NS(=O)(=O)c1ccc(CCN/C(=N\c2ccccc2)SC2CC(=O)N(c3ccccc3)C2=O)cc1` (centres unmarked) [Compound 96], for which the pIC50 under setting [1] was 4.96. Consider `CCN/C(=N/c1cccc(OC)c1)SC1CC(=O)N(c2ccc(C(=O)O)cc2)C1=O` (centres unmarked) [Compound 72], for which the negative logarithm of the IC50 (pIC50) under setting [1] is less than 3.70.

Turning to `Nc1c(S(=O)(=O)O)ccc2c1C(=O)c1ccccc1C2=O` [Compound 28], the pIC50 under setting [2] is less than 3.70.

Consider `COc1ccc(N2C(=O)CC(S/C(=N/c3ccc(C)cc3)NCCc3ccc(S(N)(=O)=O)cc3)C2=O)cc1` (centres unmarked) [Compound 105], for which the negative-log IC50 (pIC50) under setting [1] was less than 3.70.

Take `CCCN/C(=N\c1ccccc1)SC1CC(=O)N(c2ccc(C(=O)OC)cc2)C1=O` (centres unmarked) [Compound 77]: under setting [1], the negative-log IC50 (pIC50) was less than 3.70. Turning to `COC(=O)c1ccc(N2C(=O)CC(S/C(=N\c3ccc(Cl)cc3)NCc3ccccc3)C2=O)cc1` (centres unmarked) [Compound 68], the negative-log IC50 (pIC50) under setting [1] is less than 3.70. `COc1ccc(N2C(=O)CC(S/C(=N/c3ccccc3)NCCc3ccc(S(N)(=O)=O)cc3)C2=O)cc1` (centres unmarked) [Compound 106]: the pIC50 under setting [1] is 5.30.

`C#CCOc1ccc2ccccc2c1/C=C1\SC(Nc2cccc(C(=O)O)c2)=NC1=O` [Compound 40]: the pIC50 under setting [2] was less than 3.70. In the case of `COC(=O)c1ccc(N2C(=O)CC(S/C(=N/c3ccccc3)NC(C)C)C2=O)cc1` (centres unmarked) [Compound 79], under setting [1], the negative logarithm of the IC50 (pIC50) was 4.93. For the molecule `CCc1ccc(C=C(C(=O)O)C(=O)O)s1` [Compound 23], under setting [2], the pIC50 is less than 3.70. With `Cc1cccc(C)c1OCC(=O)NCc1ccc(C(=O)O)cc1` [Compound 17], the negative-log IC50 (pIC50) under setting [2] was less than 3.70. For the molecule `CCOC(=O)c1ccc(N2C(=O)CC(S/C(=N/c3ccc(OC)cc3)NCCc3ccc(S(N)(=O)=O)cc3)C2=O)cc1` (centres unmarked) [Compound 107], the pIC50 under setting [1] was less than 3.70. Consider `CN/C(=N/c1ccccc1)SC1CC(=O)N(c2ccc(C(=O)OC)cc2)C1=O` (centres unmarked) [Compound 75], for which the negative-log IC50 (pIC50) under setting [1] is less than 3.70. The same measure, in the same setting: the figure for `Cc1ccc(/N=C(\NCCc2ccc(S(N)(=O)=O)cc2)SC2CC(=O)N(c3ccccc3)C2=O)cc1` (centres unmarked) [Compound 113] is 5.23. With `CN(C)c1ccc(CNCc2ccc(C(=O)O)cc2)cc1` [Compound 49], the negative-log IC50 (pIC50) under setting [2] was less than 3.70. As for `COC(=O)c1ccc(N2C(=O)CC(S/C(=N/c3ccccc3)NC3CC3)C2=O)cc1` (centres unmarked) [Compound 80], under setting [1], the negative logarithm of the IC50 (pIC50) is less than 3.70. For the molecule `CN/C(=N/c1cc(Cl)cc(Cl)c1)SC1CC(=O)N(c2ccc(C(=O)O)cc2)C1=O` (centres unmarked) [Compound 69], under setting [1], the pIC50 is 3.97. Take `CNC(=O)c1ccc(N2C(=O)CC(S/C(=N/c3ccccc3)NC(C)C)C2=O)cc1` (centres unmarked) [Compound 93]: the pIC50 under setting [1] is less than 3.70. Regarding `Cc1ccc(Oc2ccc(N3C[C@H](C(=O)O)CC3=O)cc2)cc1C` [Compound 50], the pIC50 under setting [2] was less than 3.70. As to `O=C(CSCc1c(Cl)cccc1Cl)Nc1ccc(C(=O)O)cc1` [Compound 09], the pIC50 under setting [2] was less than 3.70. With `COc1ccc(N2C(=O)CC(Br)C2=O)cc1` (centres unmarked) [Compound 120], under setting [1], the pIC50 was less than 3.70. As for `COc1ccc(-c2occ(C(=O)O)c2C(=O)O)cc1` [Compound 34], the negative logarithm of the IC50 (pIC50) under setting [2] was less than 3.70. Regarding `CCOC(=O)c1ccc(N2C(=O)CC(S/C(=N/c3ccccc3)NC)C2=O)cc1` (centres unmarked) [Compound 82], under setting [1], the pIC50 is 4.65. For the molecule `COC(=O)c1ccc(N2C(=O)CC(S/C(=N/c3cc(OC)ccc3OC)NCCc3ccc(S(N)(=O)=O)cc3)C2=O)cc1` (centres unmarked) [Compound 98], under setting [1], the pIC50 is 4.67. As to `COc1ccc(CN/C(=N/c2ccc(Cl)cc2)SC2CC(=O)N(c3ccc(C(=O)O)cc3)C2=O)cc1` (centres unmarked) [Compound 74], the pIC50 under setting [1] was less than 3.70. Still for that read-out and setting: the figure for `CCCCN/C(=N\c1ccccc1)SC1CC(=O)N(c2ccc(C(=O)OCC)cc2)C1=O` (centres unmarked) [Compound 85] is less than 3.70. On the same count and under the same terms, the figure for `COc1ccc(OC)c(/N=C(\NCCc2ccc(S(N)(=O)=O)cc2)SC2CC(=O)N(c3ccccc3)C2=O)c1` (centres unmarked) [Compound 112] is 6.70; for `CN/C(=N/c1cccc(F)c1)SC1CC(=O)N(c2ccc(C(=O)O)cc2)C1=O` (centres unmarked) [Compound 70] it is less than 3.70.

In the case of `CCN/C(=N/c1ccc(C)c(Cl)c1)SC1CC(=O)N(c2ccc(C(=O)OC)cc2)C1=O` (centres unmarked) [Compound 62], the “Inhibitory activity on CRAC channel in primary screening (NFAT nucleus-to-cytosol ratio)” value (200 μM compound) is on record as “good inhibition”. For the same molecule, the pIC50 under setting [1] is 4.95.

In the case of `Cc1ccc(/N=C(\NCCc2ccc(S(N)(=O)=O)cc2)SC2CC(=O)N(c3ccc(C)cc3)C2=O)cc1` (centres unmarked) [Compound 115], the pIC50 under setting [1] was 5.23. For `CCOC(=O)c1ccc(N2C(=O)CC(Sc3nc4ccccc4n3CCc3ccc(S(N)(=O)=O)cc3)C2=O)cc1` (centres unmarked) [Compound 117], the pIC50 under setting [1] was less than 3.70. As for `CCN/C(=N\c1ccc(Cl)c(Cl)c1)S[C@H]1CC(=O)N(c2ccc(C(=O)O)cc2)C1=O` [Compound 30], the negative logarithm of the IC50 (pIC50) under setting [2] is less than 3.70. For the molecule `COC(=O)c1ccc(N2C(=O)CC(S/C(=N/c3ccc(OC)cc3)NCCc3ccc(S(N)(=O)=O)cc3)C2=O)cc1` (centres unmarked) [Compound 100], under setting [1], the negative logarithm of the IC50 (pIC50) is 4.83. Take `O=C(O)c1ccc(N2C(=O)CC(S/C(=N\c3ccccc3)Nc3ccccc3)C2=O)cc1` (centres unmarked) [Compound 52]: the negative-log IC50 (pIC50) under setting [1] is less than 3.70.

For `O=C(O)c1ccc(-c2ccc(CNC3CCCCC3)o2)cc1` [Compound 14], the pIC50 under setting [2] is less than 3.70.

For `CN/C(=N/c1ccccc1)SC1CC(=O)N(c2ccc(C(=O)OC)cc2)C1=O` (centres unmarked) [Compound 64], under setting [1], the negative-log IC50 (pIC50) was 4.60. As to `O=c1[nH]nnc2c1C1=C(CCCC1)C2` [Compound 51], under setting [2], the pIC50 was less than 3.70.

Take `Cc1ccc(Oc2ccc3c(c2)C(=O)N(CC(=O)O)C3=O)cc1` [Compound 07]: under setting [2], the negative-log IC50 (pIC50) was less than 3.70. `O=C(O)c1ccc(NC(=O)C2CC(=O)N(c3ccc(Cl)cc3)C2)cc1` (centres unmarked) [Compound 18]: under setting [2], the pIC50 was less than 3.70. For the molecule `NS(=O)(=O)c1ccc(CCNC(=S)Nc2cccc3ccccc23)cc1` [Compound 104], the negative-log IC50 (pIC50) under setting [1] was less than 3.70. The same measure, in the same setting: the result for `COC(=O)c1ccc(N2C(=O)CC(S/C(=N/c3ccc(C)cc3)NCCc3ccc(S(N)(=O)=O)cc3)C2=O)cc1` (centres unmarked) [Compound 102] reads 5.04; that for `COC(=O)c1ccc(N2C(=O)CC(S/C(=N/c3cccc(OC)c3)NCCc3ccc(S(N)(=O)=O)cc3)C2=O)cc1` (centres unmarked) [Compound 101], 4.95. Turning to `O=C(O)CN1C(=O)[C@@H]2[C@@H](C1=O)[C@H]1C=C[C@@H]2C1` [Compound 37], under setting [2], the negative-log IC50 (pIC50) is less than 3.70.

Consider `CCCCN/C(=N\c1ccccc1)SC1CC(=O)N(c2ccc(C(=O)NC)cc2)C1=O` (centres unmarked) [Compound 92], for which the negative logarithm of the IC50 (pIC50) under setting [1] was less than 3.70.
